Assay results published in ChEMBL document CHEMBL1201862, “PubChem BioAssay data set” (2004).
Calls of active or inactive are those of the source.

Legend:
[1] = target: T1, Polyadenylate-binding protein 1 (Homo sapiens, UniProt P11940); assay: PABP1 MLLE–PAM2 interaction inhibitors, dose response, miRNA deadenylation inhibitor project, biochemical, fluorescence polarization, Cy5-PAM2 peptide, secondary (AID 602260); type: functional; conditions: read-out: IC50_Mean
[2] = target: T1, Polyadenylate-binding protein 1; assay: PABP1 MLLE–PAM2 binding inhibitor potency, dose response, biochemical, fluorescence polarization, FITC-PAM2 peptide (AID 602259); type: functional; conditions: read-out: IC50_Mean
Cytochrome P450 2D6 = Cytochrome P450 2D6 (Homo sapiens, UniProt P10635);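 further: CYP2D6 member of a cytochrome P450 panel assay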
Cytochrome P450 2C19 = Cytochrome P450 2C19 (Homo sapiens, UniProt P33261); assay: Cytochrome panel assay with activity outcomes. Panel member name: p450-cyp2c19 Compounds with AC50 equal or less than 10 uM are considered active; type: functional; conditions: read-out: AC50
[3] = target: T2, Heat shock factor protein 1 (Mus musculus, UniProt P38532); assay: HSF1 potentiators in luciferase reporter cells, confirmation, cell-based, NIH3T3, luminescence, dose retest (AID 435004); type: functional;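 further: stress induced by proteasome inhibitor MG132 added 30 min after compound; luciferase reporter driven by HSF1 response element in NIH3T3 cells; actives raise luminescence as potentiators of the MG132 stress response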
T2 sequence (P38532 whole entry): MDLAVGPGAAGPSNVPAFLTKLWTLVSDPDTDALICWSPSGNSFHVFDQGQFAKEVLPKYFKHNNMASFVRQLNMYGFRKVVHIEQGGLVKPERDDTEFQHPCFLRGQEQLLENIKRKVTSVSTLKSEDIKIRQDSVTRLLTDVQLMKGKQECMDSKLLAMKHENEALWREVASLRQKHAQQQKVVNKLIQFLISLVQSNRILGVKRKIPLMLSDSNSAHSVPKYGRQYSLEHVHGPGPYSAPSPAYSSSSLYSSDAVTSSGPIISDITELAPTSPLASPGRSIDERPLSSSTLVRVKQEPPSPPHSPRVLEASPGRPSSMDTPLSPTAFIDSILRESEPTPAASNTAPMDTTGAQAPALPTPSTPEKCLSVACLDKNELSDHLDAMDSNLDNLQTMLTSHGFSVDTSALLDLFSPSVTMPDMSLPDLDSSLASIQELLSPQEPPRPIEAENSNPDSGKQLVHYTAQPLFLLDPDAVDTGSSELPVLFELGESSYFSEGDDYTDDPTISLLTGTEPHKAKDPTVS

INS1 = assay: beta cell apoptosis inhibitors, cytokine rescue, dose response, luminescence, retest (AID 449756); type: functional, cell-based; conditions: Rattus norvegicus;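 further: cell death triggered by IL-1 beta plus TNF-alpha plus IFN-gamma mixture; protective hits raise ATP signal compared with cytokine alone wells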
[4] = target: T3, Rac GTPase-activating protein 1 (Homo sapiens, UniProt Q9H0H5); assay: MgcRacGAP GTPase-activating activity inhibitors, confirmation, biochemical, ADP Hunter fluorescence, primary and confirmatory (AID 624330); type: functional
T3 sequence (Q9H0H5 whole entry): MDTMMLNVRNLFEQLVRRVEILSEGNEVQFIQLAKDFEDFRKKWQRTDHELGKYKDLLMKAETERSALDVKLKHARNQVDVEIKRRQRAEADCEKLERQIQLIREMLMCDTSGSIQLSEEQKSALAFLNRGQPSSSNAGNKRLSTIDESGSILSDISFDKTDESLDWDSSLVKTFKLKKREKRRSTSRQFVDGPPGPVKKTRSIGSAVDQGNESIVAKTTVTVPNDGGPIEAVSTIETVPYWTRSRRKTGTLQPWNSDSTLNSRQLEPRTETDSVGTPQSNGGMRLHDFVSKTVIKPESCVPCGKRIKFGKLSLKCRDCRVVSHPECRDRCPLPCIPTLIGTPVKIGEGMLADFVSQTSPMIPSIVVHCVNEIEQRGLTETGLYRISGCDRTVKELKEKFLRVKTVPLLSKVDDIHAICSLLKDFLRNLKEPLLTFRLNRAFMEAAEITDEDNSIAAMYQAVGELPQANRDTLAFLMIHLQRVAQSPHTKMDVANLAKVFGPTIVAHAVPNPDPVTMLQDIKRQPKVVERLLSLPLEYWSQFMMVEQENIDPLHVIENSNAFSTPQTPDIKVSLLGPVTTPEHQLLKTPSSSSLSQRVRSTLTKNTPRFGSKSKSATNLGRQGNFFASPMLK

Cytochrome P450 1A2 = target: T4, Cytochrome P450 1A2 (Homo sapiens, UniProt P05177);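 further: PubChem cytochrome P450 panel assay, CYP1A2 panel member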
T4 sequence (P05177 whole entry): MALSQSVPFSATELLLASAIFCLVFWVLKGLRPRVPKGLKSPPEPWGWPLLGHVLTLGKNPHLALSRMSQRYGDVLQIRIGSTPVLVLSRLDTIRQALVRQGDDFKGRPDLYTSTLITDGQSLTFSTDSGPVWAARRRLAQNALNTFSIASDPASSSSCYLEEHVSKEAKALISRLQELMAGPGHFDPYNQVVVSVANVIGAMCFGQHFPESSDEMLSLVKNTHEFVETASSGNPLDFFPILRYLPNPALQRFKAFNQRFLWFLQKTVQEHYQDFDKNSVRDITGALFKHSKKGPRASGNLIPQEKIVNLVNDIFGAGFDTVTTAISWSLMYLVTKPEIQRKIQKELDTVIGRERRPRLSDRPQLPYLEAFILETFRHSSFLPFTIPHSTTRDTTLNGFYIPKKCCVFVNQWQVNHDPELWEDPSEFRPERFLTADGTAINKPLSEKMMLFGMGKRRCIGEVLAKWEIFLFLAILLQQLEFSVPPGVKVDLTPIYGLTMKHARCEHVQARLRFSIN

Cytochrome P450 2C9 = Cytochrome P450 2C9 (Homo sapiens, UniProt P11712)
[5] = Luminescence Cell-Based Dose Response HTS to Identify Activators of Luciferase Translation or Activity in H4 […] Cells. [Related pubchem assays: 1829 (Project Summary), 1814 (Primary HTS)]; type: functional
H4 = assay: Luminescence Cell-Based Dose Response HTS to Identify Activators of 5'UTR Stem-Loop Driven Prion Protein mRNA Translation in H4 Neuroglioblastoma Cells. [Related pubchem assays: 1829 (Project Summary), 1814 (Primary HTS)]; type: functional; conditions: Homo sapiens
Cytochrome P450 3A4 = Cytochrome P450 3A4 (Homo sapiens, UniProt P08684);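 further: CYP3A4 tested as one member of a cytochrome P450 panel screen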
[6] = Luminescence Cell-Based Dose Retest to Confirm Inhibitors of Cancer Stem Cells. [Related pubchem assays (depositor defined):AID2717, AID2721]; type: functional; conditions: Homo sapiens

Chain of Cytochrome P450 2C9 (P11712 whole entry): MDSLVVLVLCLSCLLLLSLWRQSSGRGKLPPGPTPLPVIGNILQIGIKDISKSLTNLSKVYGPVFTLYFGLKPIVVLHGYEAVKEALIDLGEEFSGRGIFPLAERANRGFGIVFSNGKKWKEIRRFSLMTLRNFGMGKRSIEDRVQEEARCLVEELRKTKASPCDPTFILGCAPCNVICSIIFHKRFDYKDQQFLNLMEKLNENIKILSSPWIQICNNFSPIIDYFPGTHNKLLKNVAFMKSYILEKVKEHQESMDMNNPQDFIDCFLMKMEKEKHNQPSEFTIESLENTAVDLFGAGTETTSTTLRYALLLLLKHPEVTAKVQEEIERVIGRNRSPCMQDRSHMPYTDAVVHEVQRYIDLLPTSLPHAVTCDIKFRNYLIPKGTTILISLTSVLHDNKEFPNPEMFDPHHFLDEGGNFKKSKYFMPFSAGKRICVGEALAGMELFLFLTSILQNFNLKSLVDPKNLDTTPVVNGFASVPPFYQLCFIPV
Chain of Cytochrome P450 2D6 (P10635 whole entry): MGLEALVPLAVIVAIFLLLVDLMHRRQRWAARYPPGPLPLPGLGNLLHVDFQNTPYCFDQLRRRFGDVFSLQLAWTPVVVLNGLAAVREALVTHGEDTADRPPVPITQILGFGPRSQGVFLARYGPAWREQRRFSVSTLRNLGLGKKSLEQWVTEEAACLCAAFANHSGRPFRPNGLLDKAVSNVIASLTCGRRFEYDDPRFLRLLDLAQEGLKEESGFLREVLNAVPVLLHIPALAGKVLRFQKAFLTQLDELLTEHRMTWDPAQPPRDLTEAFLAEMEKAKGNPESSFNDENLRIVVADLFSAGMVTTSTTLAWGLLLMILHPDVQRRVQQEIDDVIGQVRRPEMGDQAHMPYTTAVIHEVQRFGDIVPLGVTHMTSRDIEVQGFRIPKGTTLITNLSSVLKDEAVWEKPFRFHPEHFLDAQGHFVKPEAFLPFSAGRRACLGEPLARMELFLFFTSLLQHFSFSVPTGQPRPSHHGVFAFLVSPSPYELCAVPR
T1 sequence (P11940 whole entry): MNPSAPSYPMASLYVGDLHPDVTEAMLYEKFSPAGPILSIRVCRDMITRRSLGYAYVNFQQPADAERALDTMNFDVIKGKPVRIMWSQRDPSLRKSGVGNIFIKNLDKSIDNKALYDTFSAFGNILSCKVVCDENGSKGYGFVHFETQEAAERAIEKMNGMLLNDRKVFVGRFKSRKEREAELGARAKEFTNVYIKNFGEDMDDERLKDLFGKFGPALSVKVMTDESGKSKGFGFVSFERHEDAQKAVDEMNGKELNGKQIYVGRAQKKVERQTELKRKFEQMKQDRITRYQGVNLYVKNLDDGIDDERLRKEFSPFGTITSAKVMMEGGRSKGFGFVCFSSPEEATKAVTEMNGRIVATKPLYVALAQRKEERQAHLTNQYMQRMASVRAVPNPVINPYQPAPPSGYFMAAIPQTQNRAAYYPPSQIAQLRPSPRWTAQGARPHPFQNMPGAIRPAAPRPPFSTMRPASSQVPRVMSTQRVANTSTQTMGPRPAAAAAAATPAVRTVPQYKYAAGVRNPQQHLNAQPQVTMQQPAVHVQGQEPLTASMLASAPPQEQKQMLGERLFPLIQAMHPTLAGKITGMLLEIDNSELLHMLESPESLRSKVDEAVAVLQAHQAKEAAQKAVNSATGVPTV
Chain of Cytochrome P450 2C19 (P33261 whole entry): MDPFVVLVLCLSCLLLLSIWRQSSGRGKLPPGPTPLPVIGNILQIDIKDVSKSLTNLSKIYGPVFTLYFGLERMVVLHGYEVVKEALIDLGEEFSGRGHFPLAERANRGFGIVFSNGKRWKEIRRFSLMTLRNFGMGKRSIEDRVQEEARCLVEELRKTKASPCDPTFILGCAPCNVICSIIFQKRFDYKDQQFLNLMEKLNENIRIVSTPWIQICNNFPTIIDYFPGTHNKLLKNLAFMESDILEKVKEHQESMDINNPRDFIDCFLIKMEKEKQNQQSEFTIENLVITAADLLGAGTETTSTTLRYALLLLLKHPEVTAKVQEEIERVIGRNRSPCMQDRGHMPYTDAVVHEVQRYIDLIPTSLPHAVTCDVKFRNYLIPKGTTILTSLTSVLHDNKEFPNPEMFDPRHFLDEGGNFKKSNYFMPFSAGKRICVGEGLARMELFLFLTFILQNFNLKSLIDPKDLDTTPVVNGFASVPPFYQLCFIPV
Chain of Cytochrome P450 3A4 (P08684 whole entry): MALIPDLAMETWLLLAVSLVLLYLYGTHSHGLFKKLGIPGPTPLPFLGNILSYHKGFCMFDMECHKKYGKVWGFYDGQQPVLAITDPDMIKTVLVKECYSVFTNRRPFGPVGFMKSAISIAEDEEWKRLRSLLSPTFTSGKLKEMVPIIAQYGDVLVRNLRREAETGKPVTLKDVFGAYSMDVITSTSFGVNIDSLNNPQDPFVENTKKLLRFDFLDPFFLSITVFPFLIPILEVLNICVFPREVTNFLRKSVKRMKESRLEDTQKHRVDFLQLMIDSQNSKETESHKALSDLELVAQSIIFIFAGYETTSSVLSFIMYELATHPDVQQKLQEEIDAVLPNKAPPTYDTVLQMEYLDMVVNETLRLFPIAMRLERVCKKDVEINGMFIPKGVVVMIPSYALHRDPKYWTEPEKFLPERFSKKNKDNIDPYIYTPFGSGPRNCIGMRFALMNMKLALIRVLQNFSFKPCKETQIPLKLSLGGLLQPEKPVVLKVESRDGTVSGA

## CC(=O)c1cccc(NC(=S)NC(=O)c2ccccc2Br)c1
[1]
  IC50: > 66 µM (inactive)
[2]
  IC50: > 66 µM (inactive)

## COC(=O)[C@@]1(Cc2ccc(OC)cc2)[C@H]2c3cc(C(=O)N(C)C)n(CCc4c[nH]c5ccc(O)cc45)c3C[C@H]2CN1C(=O)c1ccccc1
Cytochrome P450 2D6
  AC50: 15.8 µM (inconclusive)
Cytochrome P450 2C19
  AC50: 25.1 µM (inconclusive)

## CN(Cc1nnc(-c2ccc(F)cc2)o1)c1ccccc1
[3]
  EC50: > 260 µM (inactive)

## NC(=O)c1ccccc1OC1CCC1
INS1
  AC50: > 260 µM (inactive)

## COCCn1c(=O)c(-c2ccc(Cl)cc2)nc2cnc(N(C)C)nc21
Cytochrome P450 2D6
  AC50: 0.0794 µM (inconclusive)

## COc1cc(/C=N/Nc2ccccn2)cc(OC)c1O
[4]
  IC50: 35 µM (active)

## CC(=O)Nc1ccc(S(=O)(=O)Nc2nnc(CC(C)(C)C)s2)cc1
[1]
  IC50: > 66 µM (inactive)
[2]
  IC50: > 66 µM (inactive)

## CCOc1cc(/C=N/NC(=O)C(=O)N2CCCC2)ccc1O
[4]
  IC50: 56.3 µM (active)

## CCc1c(O)nc(SCc2nc(O)c3ccccc3n2)nc1O
[1]
  IC50: > 66 µM (inactive)
[2]
  IC50: > 66 µM (inactive)

## CC(=O)c1cccc(/N=C/c2c(O)oc3ccccc3c2=O)c1
[3]
  EC50: 2.8 µM (active)

## CCOC(=O)c1c(S(=O)(=O)NCC2CCN(CCc3cccs3)CC2)c(C)n(C)c1C
[3]
  EC50: > 260 µM (inactive)

## S=C(Nc1ccc2nc(-c3ccccn3)c(-c3ccccn3)nc2c1)N1CCOCC1
[1]
  IC50: > 66 µM (inactive)
[2]
  IC50: 40.3 µM (inactive)

## O=C(c1csnn1)N1CCC2(CC1)CCN(c1ccccc1)CC2
Cytochrome P450 2D6
  AC50: 7.94 µM (inconclusive)
Cytochrome P450 1A2
  AC50: 15.8 µM (inconclusive)

## CC(C)Cn1c(SCc2nc(O)c3ccccc3n2)nc2ccccc2c1=O
Cytochrome P450 2D6
  AC50: 3.98 µM (inconclusive)

## Cc1noc(-c2ccc(C(F)(F)F)cc2)c1NC(=O)Nc1ccc(Cl)cc1
INS1
  AC50: 6.96 µM (active)

## c1ccc(CN2CCN(CCOCCOc3ccc4c(c3)CCC4)CC2)cc1
[4]
  IC50: 53.6 µM (active)

## CSc1ccccc1NC(=O)CN(C)C(C)C(=O)NCc1ccc2c(c1)OCO2 (stereo not drawn)
[4]
  IC50: 46.7 µM (active)

## O=C(NCCc1ccccc1)c1noc2c1CCc1ccccc1-2
Cytochrome P450 2C9
  AC50: 7.08 µM (inconclusive)
Cytochrome P450 2D6
  AC50: 2.51 µM (inconclusive)

## COc1ccc(C2Nc3ccccc3C(=O)N2c2ccc(C)cc2)cc1Cn1nnc2ccccc21 (stereo not drawn)
[5]
  EC50: 4.2 µM (active)
H4
  EC50: 50.7 µM (active)

## COc1ccccc1N1CCN(Cc2cccc(OC)c2O)CC1
[3]
  EC50: > 260 µM (inactive)

## COc1ccc2[nH]cc(CCNc3cc(-c4cccnc4)ncn3)c2c1
Cytochrome P450 2D6
  AC50: 20 µM (inconclusive)

## CCC(=O)/C=C1/Sc2ccc(OC)cc2N1CCO
[1]
  IC50: > 66 µM (inactive)
[2]
  IC50: > 66 µM (inactive)

## C/C(=N/OC(=O)c1cccc(Cl)c1)c1nccs1
Cytochrome P450 2D6
  AC50: 35.5 µM (inconclusive)
Cytochrome P450 2C19
  AC50: 20 µM (inconclusive)
Cytochrome P450 1A2
  AC50: 31.6 µM (inconclusive)

## O=C(OCc1ccccc1F)c1ccc2c(c1)OCCO2
[5]
  EC50: 1.38 µM (active)
H4
  EC50: 5.23 µM (active)

## Cc1cc(C(=O)CSc2nnnn2C)c(C)n1Cc1ccco1
[5]
  EC50: 5.73 µM (active)
H4
  EC50: > 120 µM (not active)

## Cc1onc(-c2ccccc2)c1C(=O)N=C(N)c1ccc(C(F)(F)F)cc1
[3]
  EC50: > 260 µM (inactive)

## CC1(C)CC2=Nc3cc4c(cc3C(c3ccc5c(c3)OCO5)C2=C(O)C1)OCO4 (stereo not drawn)
[3]
  EC50: 72 µM (active)

## COC(=O)N1C(c2ccccc2)C1c1ccccc1 (stereo not drawn)
[3]
  EC50: > 260 µM (inactive)

## FC(F)(F)c1cc(CN2CCC3(CCNCC3)CC2)cc(C(F)(F)F)c1
Cytochrome P450 2D6
  AC50: 25.1 µM (inconclusive)
Cytochrome P450 3A4
  AC50: 31.6 µM (inconclusive)

## N#CC1=C(S)N(c2ccccc2)C(c2ccc(-c3cccc(Cl)c3)o2)NC1=O (stereo not drawn)
[4]
  IC50: 181 µM (active)

## Cc1cc(NC(=O)c2sc3ccccc3c2O)no1
[4]
  IC50: 75.2 µM (active)

## FC(F)(F)C(F)(F)C(F)(F)c1nc2nc(Cl)c(Cl)[nH]c-2n1
[1]
  IC50: > 66 µM (inactive)
[2]
  IC50: > 66 µM (inactive)

## COCCCn1c(C(=O)NC2CCCCC2C)cc2c(=O)n3cccc(C)c3nc21 (stereo not drawn)
[3]
  EC50: > 260 µM (inactive)

## COC(=O)[C@@H](Cc1ccccc1)N(Cc1ccccc1)S(=O)(=O)N(Cc1ccccc1)[C@H](Cc1ccccc1)C(=O)OC
INS1
  AC50: 3.91 µM (active)

## COc1ccc(NC(=O)Nc2sc(NS(=O)(=O)c3ccccc3)nc2C)cc1
[1]
  IC50: > 66 µM (inactive)
[2]
  IC50: > 66 µM (inactive)

## COC1=C(OC)C(=O)c2ccccc2C1=O
Cytochrome P450 2C9
  AC50: 39.8 µM (inconclusive)
Cytochrome P450 2D6
  AC50: 39.8 µM (inconclusive)
Cytochrome P450 2C19
  AC50: 31.6 µM (inconclusive)

## Cc1ccc2nc(-c3cccnc3)c(NC3CCCCC3)n2c1
[1]
  IC50: 41.4 µM (inactive)
[2]
  IC50: 34.7 µM (inactive)

## CCc1ccc(Nc2ncccc2C#N)cc1
Cytochrome P450 2D6
  AC50: 20 µM (inconclusive)
Cytochrome P450 3A4
  AC50: 28.2 µM (inconclusive)

## COc1cccc(-c2nc(N3CCN(c4ccccc4)CC3)c3ccccc3n2)c1O
[3]
  EC50: > 260 µM (inactive)

## Cc1[nH]c2ccccc2c1/C=C(\C#N)C(=O)NCC1CCCO1 (stereo not drawn)
[3]
  EC50: 53.1 µM (active)

## CCc1ccc(C2CC(c3cccc(Cl)c3)n3nc(N)nc3N2)cc1 (stereo not drawn)
INS1
  AC50: > 120 µM (inactive)

## CCCCOC(=O)CCCc1ccc([N+](=O)[O-])cc1[N+](=O)[O-]
[3]
  EC50: > 260 µM (inactive)

## Cc1ccc(NC(=O)CN2CCN(C)CC2)cc1Br
[4]
  IC50: 98.5 µM (active)

## Sc1nnc2ccccn12
[4]
  IC50: 34 µM (active)

## COc1cccc(-c2nn(-c3ccccc3)cc2C(=O)n2nnc3ccccc32)c1
[3]
  EC50: 4.15 µM (active)

## O=C(N/N=C/c1cc(Br)c(O)c(Br)c1O)c1ccc2c(c1)OCCO2
INS1
  AC50: 3.1 µM (active)

## COc1ccc(CNc2ccnc(-c3cccc(C#N)c3)n2)c(OC)c1
Cytochrome P450 2C9
  AC50: 0.501 µM (inconclusive)
Cytochrome P450 2D6
  AC50: 12.6 µM (inconclusive)

## CCCCCCc1cc2cc(C(=O)Nc3ccccc3)c(=O)oc2cc1O
INS1
  AC50: 3.15 µM (active)
[6]
  AC50: 0.257 µM (active)

## O=C(NCSc1ccccc1)c1ccccc1
[1]
  IC50: > 66 µM (inactive)
[2]
  IC50: > 66 µM (inactive)

## CCC1(c2ccccc2)NC(=O)N(CC(=O)NCc2ccccc2OC)C1=O (stereo not drawn)
[3]
  EC50: > 260 µM (inactive)
